# pIC50: −log10 of the molar value. The source made the active and inactive calls. The rule behind the calls is not given here.
# System: CHOP reporter cell assay, percent of control
# Assay: CHOP reporter inhibitor potency, dose response, cell-based (AID 504322);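 note: CHO cells carrying a CHOP reporter stimulated with tunicamycin to induce ER stress; potency is for inhibition of the stress-induced reporter signal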
SMILES,IC50,pIC50
CCOC(=O)COc1ccccc1/C=C\[N+](=O)[O-],9.51 µM (inactive),
O=C(N/N=C/c1ccc(F)cc1)c1c(O)c2ccccc2[nH]c1=O,> 10 µM (inactive),
O=C(Nc1cccc(-c2nc3ncccc3o2)c1)c1sc2ccccc2c1Cl,,5.61
O=Cc1s/c(=N\S(=O)(=O)c2ccccc2)n(CCCCl)c1Cl,5.89 µM (inactive),
CC(=O)/C=C/n1c(=S)oc2ccccc21,,5.33
O=C1c2[nH]nc(-c3ccccc3O)c2C(c2cccc(Cl)c2)N1Cc1ccco1 (centres undefined),9.62 µM (inactive),
O=C(NNc1ccccc1Br)C(O)(c1cccc(C(F)(F)F)c1)c1cccc(C(F)(F)F)c1,,5.67
Cc1ccc(CNCC(O)(c2ccccc2)c2ccc(Cl)cc2)cc1 (centres undefined),9.63 µM (inactive),
CCOc1cc(/C=N/NC(=O)COc2cccc(C)c2)ccc1OC(=O)c1cccs1,> 10 µM (inactive),
Oc1[nH]c2ccccc2c1N=NC(=S)NCCc1ccccc1,9.82 µM (inactive),
Cc1ccc(C2(c3ccc(C)cc3)CC2C(=O)Nc2ccc([N+](=O)[O-])cc2O)cc1 (centres undefined),8.64 µM (inactive),
Cc1cc(C(C)(C)C)oc1C(=O)N1CCN(C(=O)c2oc(C(C)(C)C)cc2C)CC1,9.99 µM (inactive),
CC(C)C[C@H](NC(=O)c1[nH]cnc1C(=O)N[C@@H](C)C(=O)OC(C)(C)C)C(=O)OC(C)(C)C,3.69 µM (inactive),
COc1ccc(NC(=O)/C(Cl)=C(/Cl)S(=O)Cc2ccc(Cl)cc2)cn1 (centres undefined),,5.70
CC(/C=C1\SC(=O)N(CCCC(=O)O)C1=O)=C\c1ccccc1,,> 6.80
Cc1cc(C)cc(NC(=O)/C(C#N)=C/c2cn(CC(=O)NCc3ccco3)c3ccccc23)c1,,5.93
O=C1CC(c2ccccc2Cl)CC(O)=C1C=Nc1ccccc1 (centres undefined),6.54 µM (inactive),
Cc1cc(C)c(S(=O)(=O)c2ccccc2)c(OC(=O)c2cc(F)c(F)cc2Cl)n1,8.2 µM (inactive),
CC(C)(C)c1cc(CN2CCCC(O)C2)c(O)c(C(C)(C)C)c1 (centres undefined),,5.30
O=S(=O)(Nc1ccccc1)c1ccc(Oc2ncc(C(F)(F)F)cc2Cl)cc1,> 10 µM (inactive),
CC(C)=NOc1cc(NC(=O)CCl)cc([N+](=O)[O-])c1,9.61 µM (inactive),
COc1cc(C(=O)OC(C)C(=O)NCC2CCCCC2)cc(NC(=O)c2ccco2)c1OC (centres undefined),> 10 µM (inactive),
Cc1ccc(Cn2c(SCC(=O)Nc3cc(C)on3)nc3ccccc3c2=O)cc1,5.78 µM (inactive),

SMILES,IC50,pIC50
CC(NC(=O)/C(C#N)=C/c1ccc(Cl)c([N+](=O)[O-])c1)c1ccccc1 (centres undefined),9.98 µM (inactive),
COc1ccc(OCc2cccc(C(=O)O)c2)cc1,,6.06
CCCCCc1c(C)nc(Nc2ccccc2)[nH]c1=O,9.72 µM (inactive),
COC(=O)C(Nc1ccccc1Cl)(c1cc(C)c(O)c(C)c1)C(F)(F)F (centres undefined),9.66 µM (inactive),
Cc1ccc(Nc2nc(N)nc(CN3CCN(c4ccccc4)CC3)n2)cc1Cl,,5.07
Cc1ccc(C(C(=O)NCc2ccco2)N(C(=O)CNC(=O)c2cccs2)c2c(C)cccc2C)cc1 (centres undefined),> 10 µM (inactive),
CC(=O)C(C(C)=O)c1c(Cl)c(O)c(O)c2c(C(=O)c3ccccc3)coc12,5.67 µM (inactive),
CC1CCC(n2c(=S)[nH]c3ccccc3c2=O)CC1 (centres undefined),> 10 µM (inactive),
CCCc1cc(-c2nc(N)ncc2-c2ccc3c(c2)OCCCO3)c(O)cc1OC,8.02 µM (inactive),
NC(=O)c1cc(-c2ccccc2)nc(N2CCCCCC2)n1,9.62 µM (inactive),
COc1ccc(NC(=O)c2cc3cccc(OC)c3oc2=Nc2ccc(C(=O)O)cc2)cc1OC,5.28 µM (inactive),
Cc1ccc(Nc2nc(N)c([N+](=O)[O-])c(N3CCC(C)CC3)n2)cc1C,5.69 µM (inactive),
O=C(Nc1ccc(OC(F)F)cc1)Nc1cccc(C(F)(F)F)c1,8.9 µM (inactive),
CC(C)(C)C(=O)NC(=S)NNC(=O)C(c1ccccc1)c1ccccc1,9.04 µM (inactive),
Cc1cccc(C(=O)c2cnc3ccccc3c2-c2ccccc2)c1,> 10 µM (inactive),
O=C1c2ccccc2-c2onc3ccc(Oc4ccccc4)c1c23,9.64 µM (inactive),
Cc1cccc(C)c1NC(=O)COc1ccccc1C(=O)Nc1ccc(Br)cn1,> 10 µM (inactive),
Cc1c(CN2CCC(CO)(CCOc3ccccc3)CC2)[nH]c2c(Cl)cccc12,9.13 µM (inactive),
Nc1cc(Cl)ccc1Oc1ccc(Cl)cc1,4.67 µM (inactive),
COc1cccc(-c2nnc(NC(=O)c3ccc(S(=O)(=O)N(CC(C)C)CC(C)C)cc3)o2)c1,,5.38
CCCCCn1c(=O)c(C(=O)Nc2nc3ccccc3[nH]2)c(O)c2ccccc21,,5.30
CCOc1ccc(-c2cc(CCCC(=O)NCc3ccc(C)cc3)no2)cc1,5.91 µM (inactive),
COCCn1c(=NC(=O)/C=C/c2cccs2)sc2cc(NC(C)=O)ccc21,> 10 µM (inactive),

SMILES,IC50,pIC50
O=C(Nc1ccc(F)cc1)Nc1ccc(N2CCCC2)c(S(=O)(=O)Nc2ccccc2Cl)c1,8.31 µM (inactive),
CCn1c(=O)c(C(=O)Nc2nc3ccccc3[nH]2)c(O)c2ccccc21,5.84 µM (inactive),
CCOC(=O)c1[nH]c2ccc(Cl)cc2c1-c1ccccc1,9.7 µM (inactive),
CCCCn1c(=O)[nH]c(=O)c2c1nc(-c1ccc(OCCC)c(OCC)c1)n2C,> 10 µM (inactive),
O=c1c(Cl)c(Cl)cnn1-c1ccccc1,9.45 µM (inactive),
COc1ccc(C(CCNCc2ccc(F)cc2)c2ccc(F)cc2)cc1 (centres undefined),9.74 µM (inactive),
CCCCC(CC)Cn1c(N)c(C#N)c2nc3ccccc3nc21 (centres undefined),,5.40
Fc1cccc(-c2nnn3c2nc(Cl)c2ccccc23)c1,7.37 µM (inactive),
COc1ccc(-c2cc(C3CCN(Cc4cccc(C(F)(F)F)c4)CC3)[nH]n2)cc1,4.11 µM (inactive),
CCCCCc1c(C)nc(NCc2ccccc2)[nH]c1=O,,5.44
Cc1cccc(/C=C2/S/C(=N/N=C3\CC4CCC3(C)C4(C)C)NC2=O)c1 (centres undefined),4.97 µM (inactive),
CCN(CC)S(=O)(=O)c1cccc(NC(=O)Nc2cccc(C(F)(F)F)c2)c1,8.55 µM (inactive),
COC(=O)c1ccc2c(c1)C(C)(C)C(/C=C/c1ccccc1O)=[N+]2C,> 10 µM (inactive),
CC1(c2ccccc2)CC(C)(C)n2c(O)c(C3=NC(=S)NC3=O)c3cccc1c32 (centres undefined),9.76 µM (inactive),
CCOc1cccc(CNc2ccc(O)cc2)c1OCc1ccc(Cl)cc1Cl,,5.34
COc1cc2c(cc1OC)C(c1ccccc1)N(C(=O)CCl)CC2 (centres undefined),9.53 µM (inactive),
Cc1cc(/C=N/Nc2nc(N)ncc2[N+](=O)[O-])c(C)n1-c1cccc(C(F)(F)F)c1,9.14 µM (inactive),
C=C(C=O)CC1CC(O)[C@]2(C)OC3CC4OC5C[C@]6(C)O[C@]7(C)CCC8OC9C[C@]%10(C)OC%11C(C)=CC(=O)OC%11CC%10OC9C[C@@H](C)C8OC7CC6O[C@]5(C)CC5OC5C4OC3CC2O1 (some centres undefined),,6.09
CC(C)c1nnc(N2C(=O)c3oc4ccccc4c(=O)c3C2c2ccco2)s1 (centres undefined),> 10 µM (inactive),
C=CS(=O)(=O)c1ccc(Oc2ccc(S(=O)(=O)C=C)cc2)cc1,,5.77
Cc1cccc(N=Nc2c(N)n[nH]c2-c2ccc(Cl)cc2)c1,9.41 µM (inactive),
Cc1cc(/C=N/n2cnnc2)c(C)n1-c1ccc(OCc2ccc(F)cc2)cc1,0.67 µM (inactive),
COc1cc(/C=C(/C#N)c2nc3ccccc3c(=O)[nH]2)ccc1O,> 10 µM (inactive),

# — PubChem BioAssay AID504322 (Emory University Molecular Libraries Screening Center, 2011)
